This passage reports t1/2 results from patent publication US20260021098A1, “METHODS OF TREATMENT OF JAK INHIBITION RESPONSIVE CONDITIONS WITH DEUTERATED JAK INHIBITORS” (Sun Pharmaceutical Industries, Inc., priority 2024, published 2026).

This data set is described as follows: Drug-drug interaction study of Compound (I) and itraconazole, plasma concentration data. It is filed as in vivo, human. The note with it: 12 mg Compound (I) with 200 mg itraconazole (Test), healthy volunteers.

The structures appear in SMILES notation.

Compound `[2H]C1([2H])C([C@@H](CC#N)n2cc(-c3ncnc4[nH]ccc34)cn2)C([2H])([2H])C([2H])([2H])C1([2H])[2H]` [Compound (I), (R)-3-(4-(7H-pyrrolo[2,3-d]pyrimidin-4-yl)-1H-pyrazol-1-yl)-3-(cyclopentyl-2,2,3,3,4,4,5,5-d8) propanenitrile] had a t1/2 of 4.62 h.
